The nature of series [1]: Single dose oral pharmacokinetic study. The settings on record: Mice oral PK @30 mg/kg, plasma, vehicle 10% Solutol+20% PEG. It is filed as in vivo. In outline: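 Rats or mice dosed orally at 30 mg/kg in 10% Solutol+20% PEG. Acetonitrile precipitation, then LC-MS/MS quantification for PK parameters.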
The test system of a further series is HIV-1 strain 92HT599. Kind of series: Antiviral activity against HIV-1 strain 92HT599 in MT2 cells (p24 estimation). It is filed as cell-based. The settings on record: HIV-1 92HT599, ~96 hours. On the procedure: MT2 cells were infected with HIV-1 strain 92HT599 (10 TCID 50/30000 cells). The infected cells were plated at the concentration of ˜30,000 cells per well in 96 well plate. Test compound was added to the micro plate in defined format with the final concentration of DMSO (vehicle) is not more than 1%. Incubation was carried out in CO2 incubator for ˜96 hours for viral infection. At the end of incubation period an aliquot from each well was taken for p24 estimation. The quantitation of p24 is an index for antiviral activity of the compound. Percent inhibition was calculated with reference to control values (vehicle controls). p24 estimation was carried out using Advance biosciences kit as per the procedure detailed by supplier.

In the next series the test system is pNL4-3 WT. In words: Antiviral activity against pNL4-3 WT strain in MT4 cells (p24 estimation). It is filed as cell-based, HIV-1. The note with it: 4 days. How it is done: (§1) MT4 cells were Transfected with HIV-1 Plasmid (pNL4-3-WT & V7A) (Cells were incubating with required number of TCID50 of HIV-1 for 1.5 h at 37° C.). After infection, the infected cells were plated at the concentration of 3×10^4 cells per well in 96 well plate. Test compound was added to the test plate in defined format with the final concentration of DMSO is not more than 1%. Incubation was carried out in CO2 incubator for 4 days for viral infection. At the end of incubation period an aliquot from each well was taken for p24 estimation. p24 estimation was carried out using Advance biosciences kit as per the procedure detailed by supplier.

For a further series, the system named is pNL4-3 V7A. In words: Antiviral activity against pNL4-3 V7A strain in MT4 cells (p24 estimation). In kind it is cell-based, HIV-1. The note with it: 4 days. How it is done:
as §1

The subject of another series is cells. Kind of series: Cyto-toxicity (MTT assay). In kind it is cell-based. In general terms: Tetrazolium dyes change colour on reduction, which living cells bring about.
Series [2] in a line: Cyto-toxicity (MTT assay). In kind it is cell-based.
Setting [3] is: 0% serum binding assay, read-out: IC50 0% serum.
The mark [4] stands for this setting: 40% serum binding assay, read-out: IC50 40% serum.

Here are results for 8 compounds from US20170008921A1, “C-3 NOVEL TRITERPENONE WITH C-28 REVERSE AMIDE DERIVATIVES AS HIV INHIBITORS” (HETERO RESEARCH FOUNDATION, priority 2015, published 2017).

Like-named read-outs stand apart in the source and are kept apart here.

Usually Cmax stands for the maximum level reached in the sampled fluid or tissue. The term IC50 denotes the concentration at which inhibition is half-maximal. `CC(C)C1=C2[C@H]3CC[C@@H]4[C@@]5(C)CC[C@H](OC(=O)[C@H]6C[C@@H](C(=O)O)C6(C)C)C(C)(C)[C@@H]5CC[C@@]4(C)[C@]3(C)CC[C@@]2(NC(=O)C(C)(C)NS(=O)(=O)c2ccc(Cl)cc2)CC1=O` [Example 65, (1R,3S)-3-((((3aR,5aR,5bR,7aR,9S,11aR,11bR,13aS)-3a-(2-((4-chlorophenyl)sulfonamido)-2-methylpropanamido)-1-isopropyl-5a,5b,8,8,11a-pentamethyl-2-oxo-3,3a,4,5,5a,5b,6,7,7a,8,91,111,11a,11b,12,13,13a-octadecahydro-2H-cyclopenta[a]chrysen-9-yl)oxy)carbonyl)-2,2-dimethylcyclobutane-1-carboxylic acid] came in with an AUC(0-t) in series [1] of 145.21 µg·h/mL. In series [1], the Cmax turned out to be 7383 ng/mL. Also, the IC50 in the series on HIV-1 strain 92HT599 (setting [3]) is under 3 nM; in the series on HIV-1 strain 92HT599 (setting [4]) it was under 50 nM; in the series with pNL4-3 WT, over 10 nM; in the series with pNL4-3 V7A it was over 50 nM. Further, the Cytotoxicity % viability worked out at 27% in the series on cells (0.01 μM, MTT, 4 days (Table 3)); 3% with cells (0.1 μM, MTT, 4 days (Table 3)); 2% in the series with cells (1 μM, MTT, 4 days (Table 3)).
On to `CC(C)C1=C2[C@H]3CC[C@@H]4[C@@]5(C)CC[C@H](OC(=O)[C@H]6C[C@@H](C(=O)O)C6(C)C)C(C)(C)[C@@H]5CC[C@@]4(C)[C@]3(C)CC[C@@]2(NC(=O)C(C)(C)NC(=O)[C@@H]2CCCN2)CC1=O.Cl` [Example 76, (1R,3S)-3-((((3aR,5aR,5bR,7aR,9S,11aR,11bR,13aS)-1-isopropyl-5a,5b,8,8,11a-pentamethyl-3a-(2-methyl-2-((S)-pyrrolidine-2-carboxamido)propanamido)-2-oxo-3,3a,4,5,5a,5b,6,77a,8,9,10,11,11a,11b,12,13,13a-octadecahydro-2H-cyclopenta[a]chrysen-9-yl)oxy)carbonyl)-2,2-dimethylcyclobutane-1-carboxylic acid hydrochloride], for which the IC50 was under 3 nM in the series with HIV-1 strain 92HT599 (setting [3]) and 50 to 200 nM with HIV-1 strain 92HT599 (setting [4]). The Cytotoxicity % viability in the series on cells (0.01 µM) worked out at 59%; in the series on cells (0.1 µM), 6%; in the series on cells (1 µM) it was 6%.
Turning to `CC(C)C1=C2[C@H]3CC[C@@H]4[C@@]5(C)CC[C@H](OC(=O)[C@H]6C[C@@H](C(=O)O)C6(C)C)C(C)(C)[C@@H]5CC[C@@]4(C)[C@]3(C)CC[C@@]2(NC(=O)C(C)(C)N)CC1=O.Cl` [Example 74, (1R,3S)-3-((((3aR,5aR,5bR,7aR,9S,11aR,11bR,13aS)-3a-(2-amino-2-methylpropanamido)-1-isopropyl-5a,5b,8,8,11a-pentamethyl-2-oxo-3,3a,4,5,5a,5b, 6,7,7a,8,9,10,1111a,11b,12,13,13a-octadecahydro-2H-cyclopenta[a]chrysen-9-yl)oxy)carbonyl)-2,2-dimethylcyclobutane-1-carboxylic acid hydrochloride], the figures for the IC50 in the series on HIV-1 strain 92HT599 (setting [3]) and in the series with HIV-1 strain 92HT599 (setting [4]) were under 3 nM and under 50 nM, respectively. In addition, the Cytotoxicity % viability was 61% in the series on cells (0.01 µM), 14% with cells (0.1 µM) and 19% with cells (1 µM).
By viability is commonly meant a per cent measure of how many cells are alive, often set against a control. Read a low viability as more harm to the cells. For `Cc1cccc(NC(=O)NC(C)(C)C(=O)N[C@@]23CC[C@]4(C)[C@H](CC[C@@H]5[C@@]6(C)CC[C@H](OC(=O)[C@H]7C[C@@H](C(=O)O)C7(C)C)C(C)(C)[C@@H]6CC[C@]54C)C2=C(C(C)C)C(=O)C3)n1` [Example 72, (1R,3S)-3-((((3aR,5aR,5bR,7aR,9S,11aR,11bR,13aS)-1-isopropyl-5a,5b,8,8,11a-pentamethyl-3a-(2-methyl-2-(3-(6-methylpyridin-2-yl)ureido)propanamido)-2-oxo-3,3a,4,5,5a,5b,6,7,7a,8,9,10,11,11a,11b,12,13,13a-octadecahydro-2H-cyclopenta[a]chrysen-9-yl)oxy)carbonyl)-2,2-dimethylcyclobutane-1-carboxylic acid], the AUC(0-t) in series [1] (mouse, read-out: AUC0-t) turned out to be 192 µg·h/mL. For the same compound, in series [1] (mouse, read-out: Cmax), the Cmax amounted to 15300 ng/mL. In series [2], this compound registered a viability at 4 days, 0.001 µM of 98%; a viability at 4 days, 0.003 µM of 84%; a viability at 4 days, 0.01 µM of 27%.
With `Cc1cccc(C(=O)NC(C)(C)C(=O)N[C@@]23CC[C@]4(C)[C@H](CC[C@@H]5[C@@]6(C)CC[C@H](OC(=O)[C@H]7C[C@@H](C(=O)O)C7(C)C)C(C)(C)[C@@H]6CC[C@]54C)C2=C(C(C)C)C(=O)C3)n1` [Example 60, (1R,3S)-3-((((3aR,5aR,5bR,7aR,9S,11aR,11bR,13aS)-1-isopropyl-5a,5b,8,8,11a-pentamethyl-3a-(2-methyl-2-(6-methylpicolinamido)propanamido)-2-oxo-3,3a,4,5,5a,5b,6,7,7a,8,9,10,11,11a,11b,12,13,13a-octadecahydro-2H-cyclopenta[a]chrysen-9-yl)oxy)carbonyl)-2,2-dimethylcyclobutane-1-carboxylic acid], the AUC(0-t) in series [1] (mouse, read-out: AUC0-t) turned out to be 217 µg·h/mL. Further, the Cmax in series [1] (mouse, read-out: Cmax) came to 20200 ng/mL. In series [2], the viability at 4 days, 0.01 µM is 77%; the viability at 4 days, 0.1 µM stood at 27%; the viability at 4 days, 1 µM was 2%.
For the compound `CC(C)C1=C2[C@H]3CC[C@@H]4[C@@]5(C)CC[C@H](OC(=O)[C@H]6C[C@@H](C(=O)O)C6(C)C)C(C)(C)[C@@H]5CC[C@@]4(C)[C@]3(C)CC[C@@]2(NC(=O)C(C)(C)NC(=O)c2cccnc2N2CCOCC2)CC1=O` [Example 31, (1R,3S)-3-((((3aR,5aR,5bR,7aR,9S,11aR,11bR,13aS)-1-isopropyl-5a,5b,8,8,11a-pentamethyl-3a-(2-methyl-2-(2-morpholinonicotinamido)propan amido)-2-oxo-3,3a,4,5,5a,5b,6,7,7a,8,9,10,11,11a,11b,12,13,13a-octadecahydro-2H-cyclopenta[a]chrysen-9-yl)oxy)carbonyl)-2,2-dimethylcyclobutane-1-carboxylic acid], in series [1] (mouse, read-out: AUC0-t), the AUC(0-t) turned out to be 255 µg·h/mL. For the same compound, in series [1] (mouse, read-out: Cmax), the Cmax was 18700 ng/mL. For the same compound, in series [2], the viability at 4 days, 0.001 µM was 81%; the viability at 4 days, 0.003 µM amounted to 86%; the viability at 4 days, 0.01 µM was 54%.
As to `CC(C)C1=C2[C@H]3CC[C@@H]4[C@@]5(C)CC[C@H](OC(=O)[C@H]6C[C@@H](C(=O)O)C6(C)C)C(C)(C)[C@@H]5CC[C@@]4(C)[C@]3(C)CC[C@@]2(NC(=O)C(C)(C)NC(=O)c2ccc3[nH]c(-c4cnccn4)nc3c2)CC1=O` [Example 15, (1R,3S)-3-((((3aR,5aR,5bR,7aR,9S,11aR,11bR,13aS)-1-isopropyl-5a,5b,8,8,11a-pentamethyl-3a-(2-methyl-2-(2-(pyrazin-2-yl)-1H-benzo[d]imidazole-5-carboxamido)propanamido)-2-oxo-3,3a,4,5,5a,5b,6,7,7a,8,9,10,11,11a,11b,12,13,13a-octadecahydro-2H-cyclopenta[a]chrysen-9-yl)oxy)carbonyl)-2,2-dimethylcyclobutane-1-carboxylic acid], the AUC(0-t) in series [1] (mouse, read-out: AUC0-t) came to 141 µg·h/mL. The Cmax in series [1] (mouse, read-out: Cmax) amounted to 12800 ng/mL. In addition, in series [2], the viability at 4 days, 0.01 µM was found to be 44%; the viability at 4 days, 0.1 µM came out at 8%; the viability at 4 days, 1 µM stood at 2%.
Consider `Cc1ccc(C(=O)NC2(C(=O)N[C@@]34CC[C@]5(C)[C@H](CC[C@@H]6[C@@]7(C)CC[C@H](OC(=O)[C@H]8C[C@@H](C(=O)O)C8(C)C)C(C)(C)[C@@H]7CC[C@]65C)C3=C(C(C)C)C(=O)C4)CC2)cc1` [Example 40, (1R,3S)-3-((((3aR,5aR,5bR,7aR,9S,11aR,11bR,13aS)-1-isopropyl-5a,5b,8,8,11a-pentamethyl-3a-(1-(4-methylbenzamido)cyclopropane-1-carboxamido)-2-oxo-3,3a,4,5,5a,5b,6,7,7a,8,9,10,11,11a,11b,12,13,13a-octadecahydro-2H-cyclopenta[a]chrysen-9-yl)oxy)carbonyl)-2,2-dimethylcyclobutane-1-carboxylic acid], for which, in series [1] (mouse, read-out: AUC0-t), the AUC(0-t) amounted to 343 µg·h/mL. For the same compound, the Cmax in series [1] (mouse, read-out: Cmax) was determined as 20300 ng/mL. In series [2], this compound came in with a viability at 4 days, 0.01 µM of 26%; a viability at 4 days, 0.1 µM of 2%; a viability at 4 days, 1 µM of 1%.
